{
  "source": "patent EP4763221A1",
  "about": "“COMPOUND AND ANTIBODY-DRUG CONJUGATE COMPRISING SAME” (priority 2023, dated 2025)",
  "key": {"[1]": {"tested_on": "MDA-MB-453 cells", "assay": "FACS assay for internalization activity in MDA-MB-453 cells", "type": "cell-based", "settings": "100 nM, 37 °C for 1 h, 3 h and 5 h, compared to isotype control IgG-Dxd", "method": "MDA-MB-453 cells (purchased from Cobioer Biosciences Co., Ltd., Cat. No. CBP60386) were collected, counted, and determined for cell viability. The cell suspension was added to a 96-well low-adsorption plate at 1 × 10^5 cells/sample and centrifuged at 750× g for 5 min. The supernatant was discarded. 100 µL of the experimental drug (at a working concentration of 100 nM) was added, with an isotype control (IgG-Dxd, at a working concentration of 100 nM) designed in parallel. The mixture was mixed uniformly and incubated in an incubator at 37 °C for 1 h, 3 h, and 5 h. After the incubation was completed, 1% PBSA (PBS + 1% BSA) was added, and the mixture was centrifuged at 750× g for 5 min. The supernatant was discarded, and the cells were washed twice with 1% PBSA. 100 µL of patritumab (at a working concentration of 100 nM) was added, and the mixture was incubated on ice for 30 min. 1% PBSA (PBS + 1% BSA) was added, and the mixture was centrifuged at 750× g for 5 min. The supernatant was discarded, and the cells were further washed twice with 1% PBSA. 100 µL of 300-fold diluted fluorescent antibody Mouse Anti-Human IgG Fc-Alexa Fluor 647 (Southern Biotech, Cat. No. 9040-31) was added, and the cell pellet was resuspended and incubated on ice for 30 min in the dark. 1% PBSA (PBS + 1% BSA) was added, and the mixture was centrifuged at 1000× g for 5 min. […]"}, "[2]": {"tested_on": "HCC827 human lung cancer cell xenograft tumor", "assay": "In vivo efficacy in xenograft tumor model", "parameters": "species or system CB-17 SCID mice", "settings": "3 mg/kg and 1.5 mg/kg, IV, weekly×3, compared to isotype control antibody", "from_the_text": "To determine the anti-tumor activity of the anti-HER3 antibody-drug conjugates in vivo, HCC827 human lung cancer cells (purchased from GuangZhou Jennio Biotech Co., Ltd.) were first inoculated subcutaneously into 5- to 8-week-old female CB-17 SCID mice (purchased from Guangdong Model Organisms Center, Inc.) on the upper posterior region of the right hind thigh. The day of grouping was defined as D0. The route of administration was intravenous injection (iv), once a week for a total of 3 doses. After the administration, the length and width of the tumors in each group were measured, and the tumor volume was calculated. Table 7: Dosing regimen of anti-HER3 antibody-drug conjugates for treatment of CB-17 SCID mouse model of HCC827 human lung cancer cell xenograft tumor"}, "[3]": {"tested_on": "NCI-H1781 cells", "assay": "Specific cell killing activity (CellTiter-Glo)", "type": "cell-based", "settings": "medium with 10% human ab serum, 6 days", "method": "NCI-H1781 cells (Cobioer Biosciences Co., Ltd., Cat. No. CBP60116) were collected, and centrifuged at 1000× g for 5 min, and then the supernatant was removed. The cells were resuspended and counted, and the viability was determined. The cells were diluted, and NCI-H1781 (2500 cells/100 µL) was added to each well of a black-bottom 96-well plate. The plate was incubated in an incubator at 37 °C with 5% CO2 overnight. The experimental drug was diluted with a medium (10% human ab serum), and 100 µL of the experimental drug was added to each well according to the experimental design. A blank control was designed, with three replicate wells set for each group. The plate was incubated in an incubator at 37 °C with 5% CO2 for 6 days. After incubation, the 96-well plate was centrifuged at 350× g for 5 min, and then 135 µL of the supernatant was discarded. 60 µL of CellTiter-Glo (Promega, Cat. No. G8461) was added to each well. The plate was incubated at room temperature for 15 min. Then the […] value was detected by a multi-label microplate tester."}, "[4]": {"tested_on": "MDA-MB-453 cells", "assay": "ADCC activity with PBMCs (LDH cytotoxicity detection)", "type": "cell-based", "settings": "5, 15 and 45 µg/mL, PBMC effector-to-target ratio 30:1, 4 h", "method": "MDA-MB-453 cells (purchased from Cobioer Biosciences Co., Ltd., Cat. No. CBP60386) and PBMCs (provided by Zhongshan Blood Center) in the logarithmic growth phase were collected and centrifuged at 170× g for 5 min, and the supernatant was discarded. The cell pellet was resuspended in an assay medium (RPMI-1640 containing 1% FBS), centrifuged and washed twice, and the cells were counted. The cell density was adjusted with the assay medium, and the target cell suspension was seeded into a 96-well plate (containing about 3 × 10^4 target cells/well) at 50 µL/well. Then, serially diluted drugs (5 µg/mL, 15 µg/mL, and 45 µg/mL based on the working concentration of the antibody, respectively) were added, and the plate was pre-incubated at room temperature for 1 h. After the pre-incubation was completed, the PBMC suspension was added to the sample wells at 100 µL/well (each well contained about 9 × 10^5 PBMCs with an effector-to-target ratio of 30:1), mixed uniformly, and incubated in an incubator at 37 °C with 5% CO2 for 4 h. After the incubation was completed, the 96-well plate was taken out and centrifuged at 250× g for 5 min. 100 µL of culture supernatant was carefully pipetted and transferred to another 96-well plate. […] OD values at 490 nm and 650 nm were measured. […] The ADCC activity (expressed as ADCC%) was calculated based on the measured OD value of each group. […]"}},
  "data": [
    {"substance": "KA0013: anti-HER3 antibody-drug conjugate: patritumab conjugated via thioether bonds to Mc-AAA-Dxd (KA0012)", "values": [
      {"measurement": "endocytic (internalization) activity", "setting": "[1]", "value": "could be endocytosed in MDA-MB-453"},
      {"measurement": "growth of mouse tumors (tumor volume)", "setting": "[2]", "value": "effectively inhibit the growth of mouse tumors"},
      {"measurement": "specific cell killing activity", "setting": "[3]", "value": "specifically kill NCI-H1781 cells"},
      {"measurement": "ADCC activity", "setting": "[4]", "value": "had ADCC activity"}
    ]}
  ]
}
